In PubChem BioAssay (NCI):
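Cultured in 96-well plates, cells were exposed to test compound for 48 hours across five concentrations. Here, GI50 denotes the concentration required for 50% inhibition of growth. Definition used: TGI = concentration required for complete inhibition of growth.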

Assays:
Assay in all cases: NCI-60 cell line screen, 48 h
[1] = test system: CCRF-CEM leukemia
[2] = test system: COLO 205 colon
[3] = test system: HCT-15 colon
[4] = test system: LOX IMVI melanoma
[5] = test system: NCI-H226 lung
[6] = test system: OVCAR-3 ovarian
[7] = test system: OVCAR-5 ovarian
[8] = test system: SW-620 colon

Row | Compound | GI50 [1] [µM] | TGI [1] [µM] | GI50 [2] [µM] | TGI [2] [µM] | GI50 [3] [µM] | TGI [3] [µM] | GI50 [4] [µM] | TGI [4] [µM] | GI50 [5] [µM] | TGI [5] [µM] | GI50 [6] [µM] | TGI [6] [µM] | GI50 [7] [µM] | TGI [7] [µM] | GI50 [8] [µM] | TGI [8] [µM]
1 | COc1ccc2c(c1)c(C1(c3cn(C)c4ccc(OC)cc34)C(=O)Nc3ccc(F)cc31)cn2C | 4.56 | > 100 | 2.62 | 6.36 | 5 | > 100 | 4.45 | > 100 | 11.9 | > 100 | 10.2 | 87.4 | 9.94 | 84.8 | 7.48 | > 100
2 | COCCOC(=O)C1=C(C)NC2=C(C(=O)CC(c3ccccc3OC)C2)C1c1cccc(O)c1 (stereo not drawn) | 11.3 | 83.6 | 8.55 | 24.8 | 19.8 | > 61.9 | 9.04 | 30.4 | 8.64 | 35.7 | 9.13 | 23.9 | 23.3 | > 100 | 12.5 | 33.5
3 | COc1ccc2[nH]cc(-c3nc(-c4cn(C)c5ccncc45)cs3)c2c1 | 2.33 | 6.25 |  |  | 1.88 | 3.92 |  |  | 18.3 | 45.9 | 1.85 | 3.41 | 2 | 3.6 | 1.95 | 3.81
4 | O=C1/C(=C/c2ccccc2Cl)N=C(c2ccccc2)N1Cc1ccco1 | 5.35 | > 100 | 51.4 | > 100 | 25.5 | > 100 |  |  |  |  | 26.9 | > 100 | > 100 | > 100 | 89.6 | > 100
5 | Nc1ccc2c(c1)C(=O)c1c(F)cccc1-2 |  | > 100 |  | > 100 |  | > 100 |  | > 100 |  | > 100 |  | > 100 |  |  |  | > 100
6 | Cn1c(CCC#N)nc2ccc(Br)cc2c1=O |  | > 100 |  | > 100 |  | > 100 |  | > 100 |  | > 100 |  |  |  | > 100 |  | > 100
7 | O=S1(=O)CCN(Cc2ccccn2)CC1 |  |  |  | > 100 |  | > 100 |  | > 100 |  | > 100 |  | 9.94 |  | > 100 |  | > 100
8 | COc1ccc2c(c1)CC[C@@H]1[C@@H]2CC[C@@]2(C)[C@H]1CC1(CCCCC1)[C@@H]2O |  |  | 7.35 | 26 | 2.59 | 10.2 | 7.28 | 20.9 | 20.2 | 44.9 | 15.1 | 31.1 | 13.1 | 28.3 |  | 
9 | C=CC1CC12C(=O)C1OC2(C)C2C(=O)c3c(ccc4c3ccc3ccccc34)C(=O)C12 (stereo not drawn) | 17.1 | > 100 | 51 | > 100 | 14.2 | 80.6 |  |  | 54.1 | > 100 |  |  | > 100 | > 100 |  | 
10 | CCN(CC)CCOc1ccc(/C=C2\CC3C4CCC5=CC(=O)CC[C@]5(C)C4CC[C@]3(C)C2=O)cc1OC (stereo partly drawn) |  |  | 1.75 | 4.61 | 2.82 | 10.5 | 1.89 | 4.43 | 2.03 | 6.51 | 2.37 | 5.07 | 3.6 | 17.4 | 2.98 | 13.4
